Laboratory results published in US4337248A, “Paromomycin containing compounds and method of use” (Farmitalia Carlo Erba S.p.A., priority 1979, dated 1982).
In brackets after ≈: the same amount, converted by molar mass. Read-outs that look alike come from different tables or passages of the source.

Experiments:
Assay type in all cases: cell-based
[1] = test system: Escherichia coli K 12-R 148; experiment: In vitro MIC by serial dilution in liquid medium, Escherichia coli K 12-R 148; conditions: K12R148; Escherichia coli K 12-R 148, inactivating enzyme APH (3') II; Nutrient Broth Difco, 24 hours, 37° C; read-out: minimum inhibitory concentration (MIC)
Method: (§1) The "in vitro" tests are carried out with the method of serial dilutions in liquid medium (Nutrient Broth Difco) and the minimal inhibition concentration (MIC) is determined after 24 hours incubation at 37° C.

[2] = test system: Escherichia coli K 12-R 55; experiment: In vitro MIC by serial dilution in liquid medium, Escherichia coli K 12-R 55; conditions: K12R55; Escherichia coli K 12-R 55, inactivating enzyme AAC (3) I; Nutrient Broth Difco, 24 hours, 37° C; read-out: minimum inhibitory concentration (MIC)
Method: as §1

bacteria = experiment: In vitro antibacterial activity (general statement)
Method: as §1

[3] = test system: Staphylococcus aureus 209P; experiment: In vitro MIC by serial dilution in liquid medium, Staphylococcus aureus 209P; conditions: read-out: minimum inhibitory concentration (MIC)
Method: as §1

Escherichia coli K 12 = experiment: In vitro MIC by serial dilution in liquid medium, Escherichia coli K 12; conditions: K12, Nutrient Broth Difco, 24 hours, 37° C, read-out: minimum inhibitory concentration (MIC)
Method: as §1

[4] = test system: Escherichia coli K 12-R 112; experiment: In vitro MIC by serial dilution in liquid medium, Escherichia coli K 12-R 112; conditions: K12R112, 24 h, read-out: minimum inhibitory concentration (MIC)
Method: as §1

[5] = test system: resistant strains of gram-negative bacteria; experiment: In vitro antibacterial activity, resistant strains of gram-negative bacteria (summary in words); conditions: against some resistant strains of gram-negative bacteria
Method: as §1

[6] = Staphylococcus aureus 209P, Nutrient Broth Difco, 24 hours, 37° C

Row | SMILES | MIC [1] [µg/mL] | MIC [2] [µg/mL] | antibacterial activity "in vitro" (bacteria) | MIC [3, 6] [µg/mL] | MIC (Escherichia coli K 12) [µg/mL] | MIC [4] [µg/mL] | MIC ([3]; Staphylococcus aureus, 209P, 24 h) [µg/mL] | activity compared with paromomycin [5]
1 | NC[C@@H]1O[C@H](O[C@H]2[C@@H](O)[C@H](O[C@@H]3[C@@H](O)[C@H](N)C[C@H](N)[C@H]3O[C@H]3O[C@H](CO)[C@H](Cl)[C@H](O)[C@H]3N)O[C@@H]2CO)[C@H](N)[C@@H](O)[C@@H]1O [(12), 4'-Deoxy-4'-epi-chloro-paromomycin] | 200 (≈ 315 µM) | 50 (≈ 78.9 µM) | display antibacterial activity | 6.25 (≈ 9.86 µM) | 50 (≈ 78.9 µM) | > 200 | – | –
2 | NC[C@@H]1O[C@H](O[C@H]2[C@@H](O)[C@H](O[C@@H]3[C@@H](O)[C@H](N)C[C@H](N)[C@H]3O[C@H]3O[C@H](CO)[C@@H](O)[C@H](O)[C@H]3N)O[C@@H]2CO)[C@H](N)[C@@H](O)[C@@H]1O [paromomycin] | > 200 | 6.25 (≈ 10.2 µM) | – | – | 12.5 (≈ 20.3 µM) | > 200 | 1.55 (≈ 2.52 µM) | –
3 | NC[C@@H]1O[C@H](O[C@H]2[C@@H](O)[C@H](O[C@@H]3[C@@H](O)[C@H](N)C[C@H](N)[C@H]3O[C@H]3O[C@H](CO)C[C@H](O)[C@H]3N)O[C@@H]2CO)[C@H](N)[C@@H](O)[C@@H]1O [(8), 4'-Deoxy paromomycin] | 50 (≈ 83.4 µM) | 6.25 (≈ 10.4 µM) | display antibacterial activity | 1.55 (≈ 2.58 µM) | 12.5 (≈ 20.8 µM) | > 200 | – | increased activity against some resistant strains of gram-negative bacteria
